This passage reports IC50 results from BindingDB's records for doi:10.1021/acsmedchemlett.6b00306 (The University of Queensland, 2016).

The target of the test is T1, Proteinase-activated receptor 2 (Homo sapiens, UniProt P55085).
T1 sequence (P55085 whole entry): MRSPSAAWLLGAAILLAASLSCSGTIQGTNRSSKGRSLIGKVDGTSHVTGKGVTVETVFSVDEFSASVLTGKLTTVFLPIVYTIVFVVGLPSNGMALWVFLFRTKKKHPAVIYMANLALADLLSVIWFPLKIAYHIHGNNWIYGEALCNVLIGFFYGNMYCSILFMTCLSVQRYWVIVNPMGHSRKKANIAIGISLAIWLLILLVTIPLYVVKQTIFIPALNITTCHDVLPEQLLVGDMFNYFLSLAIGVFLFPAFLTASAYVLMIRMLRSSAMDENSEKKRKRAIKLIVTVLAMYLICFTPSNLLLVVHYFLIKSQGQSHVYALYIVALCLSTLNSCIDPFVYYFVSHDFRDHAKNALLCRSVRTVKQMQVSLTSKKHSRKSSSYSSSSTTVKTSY
The experiment in a line: Antagonist activity at PAR2 in human HT-29 cells assessed as inhibition of 2f-LIGRLO-NH2-stimulated intracellular calcium release preincubated for 30 mins followed by 2f-LIGRLO-NH2 stimulation measured for 60 sec by Fluo-3 AM dye based FLIPR assay.

Turning to `CC[C@H](C)[C@H](NC(=O)[C@H](CC1CCCCC1)NC(=O)c1ccno1)C(=O)N1CCCC[C@H]1C(=O)NC(C)(C)C`, the half-maximal inhibitory concentration (IC50) came out at 7.94 µM.
